From publication PMC11474028, “Lipopeptide antibiotics disrupt interactions of undecaprenyl phosphate with UptA” (Proceedings of the National Academy of Sciences of the …, 2024)
Entries after “also recorded” stand apart in the source; their conditions may differ.

Experiments:
[1] = tested on: MraY; format: binding, Aquifex aeolicus; conditions: MraY (2.5 µM) and C55-P (10 µM), molar ratio 1:4, pH 8.0 vs pH 5.0; negative control
Source text: UptA is a member of the DedA family of transporters whose cellular functions are potentially driven by proton-motive force and provide conditional fitness to bacteria under alkaline conditions ([25], [26], [36]). […] To this end, we equilibrated C55-P with UptA at a protein/ligand molar ratio of 1:4 in a buffer of the same composition but at pH 8.0 and 5.0. […] As a negative control, we tested for pH sensitivity of C55-P binding to MraY, the latter being the downstream enzyme in the peptidoglycan pathway that couples UM5 to C55-P. To this end, we equilibrated MraY and C55-P at a molar ratio of 1:4 in a buffer of pH 8.0 and pH 5.0.

[2] = biological target: UptA (Bacillus subtilis, UniProt O31823); assay: Native MS competition of C55-P and phospholipids for UptA binding; conditions: 4 µM UptA and 10 µM DOPG or DOPE, increasing C55-P up to 20 µM, on ice 15 min
Sequence of UptA (O31823 whole entry): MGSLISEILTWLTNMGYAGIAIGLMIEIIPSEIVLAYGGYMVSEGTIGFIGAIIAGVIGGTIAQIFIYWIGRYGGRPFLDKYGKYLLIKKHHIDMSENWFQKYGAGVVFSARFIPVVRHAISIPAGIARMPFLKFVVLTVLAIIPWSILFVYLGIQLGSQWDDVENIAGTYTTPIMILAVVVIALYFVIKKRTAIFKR
Experimental: To investigate whether or not C55-P can outcompete phospholipids in binding to UptA, we incubated solutions containing UptA-DOPG with increasing concentrations of C55-P. Spectra were recorded after aliquots of the solution were equilibrated on ice for 15 min. […] We therefore hypothesised that phospholipids should be unable to outcompete C55-P bound to UptA. To test this hypothesis, we incubated UptA with C55-P and then equilibrated aliquots with an increasing concentration of DOPG. […]
The chloroform layer containing the total lipids was recovered into a clean glass vial, and the organic solvent was evaporated in a SpeedVac for 16 h. Lipid film was resuspended 200 mM ammonium acetate, 0.05% LDAO (pH 8.0) to ~0.5 mg/mL for the binding experiments.
Sample preparation for native MS
Before measurements, the protein was buffer-exchanged into 0.05% LDAO, 200 mM ammonium acetate (“MS buffer”) at the desired pH using a centrifugal buffer exchange device (Micro Bio -Spin 6, Bio-Rad). Stock solutions of lipids were prepared from chloroform/methanol solution by evaporating aliquots of known volume in a SpeedVac. After drying, the lipid films were weighed and resuspended to a final concentration of 0.5 mM in 200 mM ammonium acetate (pH8) and 0.05% LDAO by vertexing. Stock solutions of 0.5 mM amphomycin, aspartocin D, daptomycin and bacitracin, were made in the same buffer. All experiments were repeated three times from newly prepared stock solutions.
About 3 μL protein aliquot was transferred into a gold-coated borosilicate capillary (Harvard Apparatus) and was mounted on the nano ESI source of a Q-Exactive hybrid quadrupole-Orbitrap mass spectrometer (Thermo Fisher Scientific, Bremen, Germany). The instrument settings were 1.2 kV capillary voltage, S-lens RF 200%, argon UHV pressure 3.3 × 10−10 mbar, the capillary temperature was set to 200 °C, and resolution of the instrument was set to 17,500 at a transie nt time of 64 ms. […] The resulting fragments were detected in the Orbitrap (R = 280,000 @ m/z 200), averaging ~500 transients to maximise the signal-to-noise ratio. […]

## CC(C)=CCC/C(C)=C/CC/C(C)=C/CC/C(C)=C\CC/C(C)=C\CC/C(C)=C\CC/C(C)=C\CC/C(C)=C\CC/C(C)=C\CC/C(C)=C\CC/C(C)=C\COP(=O)(O)O [C55-P, undecaprenyl phosphate]
[1]
  pH sensitivity of C55-P binding to MraY (in words): no pH-dependency in C55-P binding by MraY; also recorded: no significant difference in the intensity of C55-P bound to MraY at pH 8.0 and at pH 5.0
[2]
  displacement of phospholipid from UptA by C55-P (in words): C55-P has displaced most of DOPG from UptA; also recorded: C55-P effectively outcompete DOPE for UptA binding
